In ChEMBL document CHEMBL5335853, “Acremosides A-G, Sugar Alcohol-Conjugated Acyclic Sesquiterpenes from a Sponge-Derived Acremonium Species” (J Nat Prod, 2024):

Tests used:
[1] = system: Edwardsiella tarda; assay: Antimicrobial activity against Edwardsiella tarda ATCC 15947 assessed as inhibition of microbial growth by CLSI protocol based two-fold serial broth microdilution method; assay type: functional
[2] = system: Staphylococcus epidermidis; assay: Antimicrobial activity against Staphylococcus epidermidis ATCC 12228 assessed as inhibition of microbial growth by CLSI protocol based two-fold serial broth microdilution method; assay type: functional
[3] = Selectivity index, ratio of CC50 for cytotoxicity against human Huh7.5 cells to EC50 for antiviral activity against HCV infected in human Huh7.5 cells; assay type: toxicity, cell-based; conditions: read-out: Ratio CC50/EC50
[4] = system: Staphylococcus aureus; assay: Antimicrobial activity against Staphylococcus aureus ATCC 29213 assessed as inhibition of microbial growth by CLSI protocol based two-fold serial broth microdilution method; assay type: functional
[5] = system: Klebsiella pneumoniae; assay: Antimicrobial activity against Klebsiella pneumoniae ATCC 700603 assessed as inhibition of microbial growth by CLSI protocol based two-fold serial broth microdilution method; assay type: functional
[6] = Cytotoxicity against human Huh7.5 cells assessed as reduction in cell viability by CCK-8 assay; assay type: toxicity, cell-based, Huh-7.5
[7] = system: Edwardsiella ictaluri; assay: Antimicrobial activity against Edwardsiella ictaluri ATCC 33202 assessed as inhibition of microbial growth by CLSI protocol based two-fold serial broth microdilution method; assay type: functional
[8] = system: Escherichia coli; assay: Antimicrobial activity against Escherichia coli ATCC 25922 assessed as inhibition of microbial growth by CLSI protocol based two-fold serial broth microdilution method; assay type: functional
[9] = system: Pseudomonas aeruginosa; assay: Antimicrobial activity against Pseudomonas aeruginosa ATCC 27853 assessed as inhibition of microbial growth by CLSI protocol based two-fold serial broth microdilution method; assay type: functional
[10] = system: Hepatitis C virus; assay: Antiviral activity against HCV infected in human Huh-7.5 cells assessed as inhibition of viral replication incubated for 72 hrs by qRT-PCR analysis; assay type: functional, organism-based, Hepacivirus hominis; conditions: Huh7.5, 72 h
[11] = system: Bacillus subtilis; assay: Antimicrobial activity against Bacillus subtilis ATCC 6633 assessed as inhibition of microbial growth by CLSI protocol based two-fold serial broth microdilution method; assay type: functional

Structure (SMILES) | MIC [1] [µg/mL] | MIC [2] [µg/mL] | selectivity ratio [3] | MIC [4] [µg/mL] | MIC [5] [µg/mL] | CC50 [6] [µM] | MIC [7] [µg/mL] | MIC [8] [µg/mL] | MIC [9] [µg/mL] | EC50 [10] [µM] | MIC [11] [µg/mL]
COC[C@@H](O)[C@@H](OC/C=C(\C)[C@@H](C[C@@H](O)[C@@](C)(O)CCC=C(C)C)OC(=O)Cc1ccccc1)[C@H](O)[C@H](O)CO | ≥ 128 | ≥ 128 | > 4 | ≥ 128 | ≥ 128 | 55 | ≥ 128 | ≥ 128 | ≥ 128 | 14 | ≥ 128
CC(C)=CCC[C@](C)(O)[C@H](O)C[C@@H](OC(=O)Cc1ccccc1)/C(C)=C/CO[C@@H]([C@H](O)[C@@H](C)O)[C@H](O)CO | ≥ 128 | ≥ 128 | > 25 | ≥ 128 | ≥ 128 | > 200 | ≥ 128 | ≥ 128 | ≥ 128 | 7.9 | ≥ 128
CC(C)OC(=O)[C@H](C)N[P@](=O)(OC[C@H]1O[C@@H](n2ccc(=O)[nH]c2=O)[C@](C)(F)[C@@H]1O)Oc1ccccc1 [SOFOSBUVIR] |  |  | > 2220 |  |  | > 200 |  |  |  | 0.09 | 
COC[C@@H](O)[C@@H](OC/C=C(\C)[C@@H](C[C@H]1O[C@H](C=C(C)C)C[C@]1(C)O)OC(=O)Cc1ccccc1)[C@H](O)[C@H](O)CO | ≥ 128 | ≥ 128 | > 17 | ≥ 128 | ≥ 128 | > 200 | ≥ 128 | ≥ 128 | ≥ 128 | 12 | ≥ 128
CC(C)=CCC[C@](C)(O)[C@H](O)C[C@@H](OC(=O)Cc1ccccc1)/C(C)=C/CO[C@@H]([C@H](O)[C@H](O)CO)[C@H](O)CO | ≥ 128 | ≥ 128 | > 42 | ≥ 128 | ≥ 128 | > 200 | ≥ 128 | ≥ 128 | ≥ 128 | 4.8 | ≥ 128
CC(C)=CCC[C@](C)(O)[C@H](O)C[C@@H](OC(=O)Cc1ccccc1)/C(C)=C/COC([C@H](O)CO)[C@H](O)CO | ≥ 128 | ≥ 128 | > 31 | ≥ 128 | ≥ 128 | > 200 | ≥ 128 | ≥ 128 | ≥ 128 | 6.5 | ≥ 128
CC(C)=C[C@@H]1C[C@](C)(O)[C@@H](C[C@@H](OC(=O)Cc2ccccc2)/C(C)=C/CO[C@@H]([C@H](O)[C@H](O)CO)[C@H](O)CO)O1 | ≥ 128 | ≥ 128 | > 23 | ≥ 128 | ≥ 128 | > 200 | ≥ 128 | ≥ 128 | ≥ 128 | 8.8 | ≥ 128
CC(C)=C[C@H]1C[C@](C)(O)[C@@H](C[C@@H](OC(=O)Cc2ccccc2)/C(C)=C/CO[C@@H]([C@H](O)[C@H](O)CO)[C@H](O)CO)O1 | ≥ 128 | ≥ 128 | > 12 | ≥ 128 | ≥ 128 | > 200 | ≥ 128 | ≥ 128 | ≥ 128 | 16 | ≥ 128
